For test [1], the target named is T1, 5-HT2C receptor T139^3.37A (Homo sapiens, UniProt P28335, DEL255-298/G251D/H250E/H252N/INS299[…]/L248D/M247A/M300L/T139A/T253W).
T1 construct: the N- and C-terminals were truncated by 39 and 65 residues, respectively; PreScission protease site + 10× His (C); made in house
Nature of the test: CPM thermal stability assay, 5-HT2C mutant T139A. The test is classed as binding. Conditions: mutant T139^3.37A, n = 2. From the text:
(§1) Based on the binding poses predicted by molecular docking, single-point mutations were designed to test their impact on ligand binding. Mutations of several residues include the highly conserved Asp134^3.32, which is known to cause 5-HT1B or 5-HT2B receptors to abolish the monoamine ligand binding as reported in the literature (Wang et al. [2013]). In this study, residues forming hydrophobic interactions with the substitution groups on the aporphine scaffold of (–)-crebanine (1) were selected for mutation as well and they are Thr139^3.37, Gly218^5.42, Ala222^5.46, and Leu209^ECL2. Effects of those mutations were tested with the CPM assay and the affinity MS assay (Table 2). In the affinity MS experiment, relative ligand-binding capacity (represented by binding %) to different mutants and the wild-type receptor was compared. […]
(§2) Purified 5-HT2C receptor protein was thoroughly mixed with CPM fluorescent dyes. […] Fluorescence signals, wavelength 387 nm (excitation) and 463 nm (emission), were monitored (Alexandrov et al. [2008]). […] The thermal denaturation of the samples was evaluated using the scatter plot curve, where the horizontal coordinates represented temperature and the vertical coordinates indicated normalized fluorescence intensity recorded for a particular temperature. […]

The target in test [2] is T2, 5-HT2C receptor L209^ECL2F (Homo sapiens, UniProt P28335, DEL255-298/G251D/H250E/H252N/INS299[…]/L209F/L248D/M247A/M300L/T253W).
T2 construct: the N- and C-terminals were truncated by 39 and 65 residues, respectively; PreScission protease site + 10× His (C); made in house
T2 sequence (P28335 with tags, fused parts or gaps with the stated changes): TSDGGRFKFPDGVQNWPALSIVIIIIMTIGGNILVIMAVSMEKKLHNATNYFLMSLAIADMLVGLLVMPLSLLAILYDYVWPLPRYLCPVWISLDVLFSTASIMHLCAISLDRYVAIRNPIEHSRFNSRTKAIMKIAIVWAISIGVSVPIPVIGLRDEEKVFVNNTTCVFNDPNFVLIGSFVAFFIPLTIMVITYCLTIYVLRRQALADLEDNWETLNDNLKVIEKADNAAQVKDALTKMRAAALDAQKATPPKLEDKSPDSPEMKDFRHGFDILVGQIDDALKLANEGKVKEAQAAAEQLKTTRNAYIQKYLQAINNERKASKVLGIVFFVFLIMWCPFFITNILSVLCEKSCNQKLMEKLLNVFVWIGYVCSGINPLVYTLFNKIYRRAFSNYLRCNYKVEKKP
Description: CPM thermal stability assay, 5-HT2C mutant L209F. Conditions: n = 2. In kind it is binding.
Text: as §1, §2

Test [3] deals with T3, 5-HT2B receptor (Homo sapiens, UniProt P41595).
T3 construct: expressed in transfected cells; host or cells: HEK 293T, stably transfected
T3 sequence (P41595 whole entry): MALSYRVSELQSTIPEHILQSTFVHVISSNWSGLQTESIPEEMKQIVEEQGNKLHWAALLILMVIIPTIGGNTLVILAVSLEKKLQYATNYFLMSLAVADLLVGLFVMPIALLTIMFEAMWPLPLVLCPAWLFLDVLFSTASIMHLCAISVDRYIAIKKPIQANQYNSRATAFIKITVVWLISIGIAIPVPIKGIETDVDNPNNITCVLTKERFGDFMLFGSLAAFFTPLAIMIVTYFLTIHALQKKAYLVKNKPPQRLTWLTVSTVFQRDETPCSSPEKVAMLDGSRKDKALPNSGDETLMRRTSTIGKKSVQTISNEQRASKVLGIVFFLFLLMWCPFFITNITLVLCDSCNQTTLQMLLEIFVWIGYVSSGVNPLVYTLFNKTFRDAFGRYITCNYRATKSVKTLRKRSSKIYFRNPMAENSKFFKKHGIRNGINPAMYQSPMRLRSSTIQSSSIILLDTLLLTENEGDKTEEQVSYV
Nature of the test: Ca2+ mobilization assay (Fluo-4, FLIPR), HEK 293T cells stably transfected with 5-HT2B. The test is classed as cell-based. From the text: The 5-HT2C receptor mainly couples to Gαq proteins. The activated 5-HT2C receptor transmits the signals from the extracellular to the intercellular side using DAG/IP3 (diacyl glycerol/inositol 1,4,5-trisphosphate) as its second massagers (Hannon and Hoyer [2008]). IP3 stimulates the endoplasmic reticulum to release calcium ions into the cytoplasm, which causes the increase of calcium concentration in cytosol. Therefore, calcium mobilization assay is commonly applied to understand how unknown small molecule ligands of 5-HT2C receptor modulate cellular signal transductions. In this case, Fluo-4 Direct dye was used as a fluorescence indicator to detect calcium flux in G protein-coupled receptor expressed cells. The fold of maximum response over average of basal reading is plotted against compound concentration to determine the potency of the compounds (Fig. 3). […]. […] After the dye loaded, cells were placed in a FLIPR^TETRA fluorescence imaging plate reader (Molecular Devices); drug dilutions, prepared at 3× final concentration in FLIPR buffer and aliquotted into 384-well plates, were also added to the FLIPR^TETRA. The fluidics module and plate reader of the FLIPR^TETRA were programmed to read baseline fluorescence for 10 s (1 read/s), then to add 10 μl of drug/well and to read for 6 min (1 read/s). […]

Test [4] has as its target T4, 5-HT2C receptor G218^5.42S (Homo sapiens, UniProt P28335, DEL255-298/G218S/G251D/H250E/H252N/INS299[…]/L248D/M247A/M300L/T253W).
T4 construct: the N- and C-terminals were truncated by 39 and 65 residues, respectively; PreScission protease site + 10× His (C); made in house
Description: CPM thermal stability assay, 5-HT2C mutant G218S. The test is classed as binding.
Text: as §1, §2

Structures are written as SMILES.

T4 sequence (P28335 with tags, fused parts or gaps with the stated changes): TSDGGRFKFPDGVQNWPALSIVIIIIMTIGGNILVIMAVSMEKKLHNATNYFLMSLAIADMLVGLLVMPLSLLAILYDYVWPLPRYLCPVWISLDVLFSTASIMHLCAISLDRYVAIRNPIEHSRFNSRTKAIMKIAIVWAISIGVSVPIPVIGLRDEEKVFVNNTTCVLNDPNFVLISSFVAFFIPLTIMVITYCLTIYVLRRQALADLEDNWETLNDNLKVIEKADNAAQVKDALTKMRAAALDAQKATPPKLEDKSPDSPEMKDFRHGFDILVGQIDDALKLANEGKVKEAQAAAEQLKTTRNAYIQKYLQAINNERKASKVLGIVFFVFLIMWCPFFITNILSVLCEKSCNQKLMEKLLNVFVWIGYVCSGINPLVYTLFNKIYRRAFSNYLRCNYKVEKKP
T1 sequence (P28335 with tags, fused parts or gaps with the stated changes): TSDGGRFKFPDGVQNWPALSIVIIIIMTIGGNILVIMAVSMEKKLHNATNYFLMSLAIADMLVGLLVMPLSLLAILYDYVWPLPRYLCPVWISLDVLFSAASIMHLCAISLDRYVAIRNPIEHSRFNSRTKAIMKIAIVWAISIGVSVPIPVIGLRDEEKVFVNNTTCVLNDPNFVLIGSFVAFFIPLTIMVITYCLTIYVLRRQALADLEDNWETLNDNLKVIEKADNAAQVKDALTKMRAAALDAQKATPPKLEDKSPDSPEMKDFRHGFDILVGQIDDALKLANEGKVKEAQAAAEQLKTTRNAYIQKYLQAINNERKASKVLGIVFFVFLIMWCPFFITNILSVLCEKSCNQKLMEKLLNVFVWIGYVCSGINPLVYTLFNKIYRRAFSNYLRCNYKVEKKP

On to `COc1ccc2c(c1OC)C[C@@H]1c3c(cc4c(c3-2)OCO4)CCN1C` [Compound 1, (–)-crebanine], for which the “(–)-Crebanine/CPM (Tm)” value was determined as 54.63 °C in test [1]; 55.46 °C in test [2]; 53.24 °C in test [4] (mutant G218^5.42S, n = 2). In test [3], this compound yielded an IC50 of 1.69 µM. For the same compound, in test [4] (mutation Gly218^5.42Ser), the “Tm value decrease versus wild-type” value is “over 6.0 °C”.
